The text below walks through data of ChEMBL document CHEMBL1159262, “Bioactive diterpenoids from Octocorallia, 2. Deoxyxeniolide B, a novel ichthyotoxic diterpenoid from the soft coral Xenia elongata” (J Nat Prod, 1995).

For the data set, the system named is Oryzias latipes. The experiment in a line: Ichthyotoxicity against Oryzias latipes after 1 hr. It counts as organism-based. As to conditions: in vivo.

With `C=C1CC[C@@H]2O[C@@]2(C)CC[C@@H]2/C(=C\C=C\C(C)(C)O)COC(=O)[C@@H]12`, the Activity entry is listed as “Non-toxic”.

As to `C=C1CC[C@@H]2O[C@@]2(C)CC[C@@H]2/C(=C\CC=C(C)C)COC(=O)[C@@H]12`, the Activity entry is reported as “Non-toxic”.

Regarding `C=C1CC/C=C(\C)CC[C@@H]2/C(=C\CC=C(C)C)COC(=O)[C@@H]12` [DEOXYXENIOLIDE B], the LC100 stood at 15 ppm.
